Source: publication PMC3906007, “Discovery of a Small Molecule Agonist of Phosphatidylinositol 3-Kinase p110α That Reactivates Latent HIV-1” (PLoS ONE, 2014)

How the values were obtained:
[1] = Cytotoxicity (MTT or CellTiter 96), Jurkat; type: cell-based; details: human, Jurkat cells; 24 hour incubation; mean ± SD, 3 replicates
Procedure: (§1) Following a 24 hour incubation period, cell viability was measured using either the MTT (Roche Applied Science, Indianapolis, IN) or CellTiter 96 proliferation (Promega, WI) assay.

[2] = Cytotoxicity (MTT or CellTiter 96), HeLa; type: cell-based; details: human, HeLa cells; 24 hour incubation; mean ± SD, 3 replicates
Procedure: as §1

[3] = Cytotoxicity (MTT or CellTiter 96), 293T; type: cell-based; details: human, 293T cells; 24 hour incubation; mean ± SD, 3 replicates
Procedure: as §1

[4] = Cytotoxicity (MTT or CellTiter 96), CD8+-depleted MNC; type: cell-based; details: human, CD8+-depleted mononuclear cells (MNC) from whole blood; 24 hour incubation; mean of 2 replicates
Procedure: as §1
(§2) CD8+T-cells were depleted from whole blood using RosetteSep Human CD8 Depletion Cocktail (StemCell Technologies, Vancouver, BC) according to manufacturer's instructions. 2×10^6 CD4^+ MNC cells were seeded in triplicate per treatment in 48-well plates and allowed to rest overnight. All wells were maintained in 81 nM efavirenz. […] Activation controls were treated with CD3/CD28 Dynabeads (Life Technologies, Grand Island, NY). After 7 days of incubation, supernatants from triplicate wells were pooled, centrifuged (500 g×5 min), and stored at −80°C. HIV-1 RNA levels in supernatants were determined using the COBAS® AmpliPrep/COBAS® TaqMan® HIV-1 Test, v2.0 (Roche, Indianapolis, IN).

[5] = tested on: latent HIV-1 in CD8+-depleted MNC; type: cell-based; details: across all four donors; 0.5 or 2 µM
Description: Healthy HIV-1 uninfected blood donors and HIV-1-infected donors on suppressive cART with plasma HIV-1 RNA less than 50 copies/mL for >2 year provided written informed consent and underwent a large volume phlebotomy (100–200 mLs). The protocol for blood donation was approved by the Institutional Review Board of the University of Pittsburgh (IRB #PRO10070203).
as §2, with “overnight.” for “overnight. All wells were maintained in 81 nM efavirenz.”

[6] = tested on: PI3K p110δ RNA; assay: PI3K isoform RNA transcript levels in J89GFP cells, p110δ; type: cell-based; details: 5 µM
[7] = tested on: HIV-1 RNA expression in resting CD4+ T cells; details: single 400 mg dose; 8 HIV-infected patients on suppressive cART; cited from earlier work
[8] = set-up: method as in PMID 20936324; details: phase II clinical trial, ovarian cancer; cited from earlier work
[9] = tested on: latent HIV-1 in J89GFP cells; assay: Latent HIV-1 reactivation in J89GFP cells (EGFP positive cells, flow cytometry); type: cell-based; details: J89GFP
Procedure: Three different cell lines of HIV-1 latency were used in this study. These included J89GFP, U1 and ACH-2 cells. The J89GFP cells were a kind gift from Dr. David Levy. The ACH-2 and U1 cells were obtained through the AIDS Research and Reference Reagent Program, Division of AIDS, NIAID, NIH: Dr. Thomas Folks contributor [19]–[21]. Reactivation of latent HIV-1 in the J89GFP cells was measured by quantifying the percentage of EGFP positive cells using a BD FACScan flow cytometer with BD FACSDiva software (BD Biosciences, CA), as described previously. Reactivation of latent HIV-1 in the ACH-2 and U 1 cells was assessed by quantitative analysis of initiated and elongated HIV-1 transcripts, as described previously. All 3 cell lines were maintained in RMPI 1640 medium supplemented with 10% FBS, 0.3 mg/mL L-glutamine, 100 U/mL penicillin, and 100 µg/mL streptomycin at 37°C in humidified air with 5% CO2.
To identify novel activators of latent HIV-1 expression, we screened 640 pure natural products from the TimTec Natural Compound Library at a concentration of 10 ng/mL for 24 hrs in a Jurkat cell (J89GFP) model of latency for their cytotoxicity and ability to reactivate HIV-1 expression. J89GFP cells contain a stably integrated, full-length HIV-1 provirus with an enhanced GFP (EGFP) reporter incorporated into the viral genome. The viral genome in these cells is transcriptionally silent. However, upon stimulation viral transcription is activated and viral expression can be measured by EGFP production. […].

[10] = tested on: T cell; set-up: method as in PMID 22732922; details: cited from earlier work

## O=C(CCCCCCC(=O)Nc1ccccc1)NO [SAHA, vorinostat, reference compound]
[1]
  CC50 at 24 h: 10 ± 0.1 µM
[2]
  CC50 at 24 h: 11.3 ± 0.3 µM
[3]
  CC50 at 24 h: 14.1 ± 0.2 µM
[4]
  CC50 at 24 h: 0.7 µM
[5]
  Capacity to increase HIV-1 expression in the CD8+-depleted MNC: very limited capacity
[6]
  Effect on PI3K p110δ RNA transcript levels / gene expression: significantly up-regulate
[7]
  HIV-1 RNA expression in resting CD4+ T cells: induced an increase in HIV-1 RNA expression

## CCC/C=C/C=C/C(=O)O[C@H]1/C(=C/C(=O)OC)C[C@H]2C[C@H]([C@@H](C)O)OC(=O)C[C@H](O)C[C@@H]3C[C@H](OC(C)=O)C(C)(C)[C@](O)(C[C@@H]4C/C(=C/C(=O)OC)C[C@H](/C=C/C(C)(C)[C@]1(O)O2)O4)O3 [bryostatin]
[8]
  Adverse event in study participants: severe myalgia in all study participants

## CC(=O)O[C@@]12C[C@@H](C)[C@@]3(O)[C@@H](C=C(CO)C[C@]4(O)C(=O)C(C)=C[C@@H]34)[C@@H]1C2(C)C [prostratin, reference compound]
[9]; 20 nM wortmannin
  Latent HIV-1 reactivation activity in presence of PI3K inhibitor wortmannin: remained unaffected
[9]; 500 nM Akt Inhibitor IV
  Latent HIV-1 reactivation activity in presence of Akt Inhibitor IV: remained unaffected
[9]; 500 nM Go6983
  Latent HIV-1 reactivation activity in presence of PKC inhibitor Gö6983: attenuated
[9]; 1 µM SP00125
  Latent HIV-1 reactivation activity in presence of JNK inhibitor SP600125: remained unaffected
[9]; 1 µM cyclosporin A
  Latent HIV-1 reactivation activity in presence of NFAT/calcineurin inhibitor cyclosporin A: remained unaffected
[10]
  Global T cell activation: induces global T cell activation
